Key:
CD40 = assay: Flow cytometry of CD40 on D2SC/1 DC line after CD40L and inhibitors; format: cell-based
Experimental: FIG. 8A-FIG. 8C show CD40L downregulates and reduces the signaling capacity of CD40. FIG. 8A provides two graphs showing endocytosis inhibition reduces CD40 downregulation. D2SC/1 cell lines were incubated with 250 μM cytochalasin B for 1 hour followed by a 30 min CD40L treatment. D2SC/1 cells were also treated with cytochalasin B, the DMSO solvent control, and CD40L alone. K^+-depletion of the D2SC/1 cell line was also carried out prior to CD40 surface staining and flow cytometry analysis. Only viable cells were gated for analysis. FIG. 8B provides flow cytometry analysis showing inhibition of lysosomal degradation enhances intracellular CD40 levels. D2SC/1 cell lines were incubated with 0.5 μM bafilomycin A inhibitor for 1 hour followed by intracellular staining for CD40 (Total CD40). Total CD40 is compared to surface CD40 fluorescence. FIG. 8C is a graph showing inhibition of endocytosis intensifies the CD40 activation signal in DC Lines. Staining and analysis of surface H-2K^d.
To initially investigate the potential downregulation of surface CD40 upon ligand engagement, flow cytometric analysis of DC surface expression of CD40 was monitored in the presence and absence of CD40L.

RelB = assay: Nuclear translocation of RelB by western blot of nuclear lysates of iCD40 D2SC/1 DCs, with pulse-chase; format: cell-based; details: pulse-chase experiments
Source text: FIG. 2A-FIG. 2F show inducible CD40 initiates a potent NFkB signal in DCs. FIG. 2A is a photograph of an anti-HA Western Blot Analysis of iCD40 D2SC/1 DC Clones. FIG. 2B is a photograph of anti-HA Immunofluorescence of D2SC/1.Hi (lt) and D2SC/1 (rt) FIG. 2C is a graph of results of an NFκB-SEAP Reporter Assay. FIG. 2D is a graph of results and a photograph that show induction of RelB and Sp1 in D2SC/1.Hi by AP20187. FIG. 2E is a graph of results and a photograph of results of assays where maximum concentrations of each agent (based on titrations) were co-incubated with iCD40 D2SC/1 for 24 hrs and nuclear lysates were analyzed by western blot.
Reporter assays were carried out in these cell lines to determine whether iCD40 could also induce NFκB activation in DCs. […] Several studies have identified that the RelB subunit of NFκB plays a significant role in the DC maturation program (Pettit 1997; Martin 2003). […] Therefore, as a surrogate marker for DC activation, the nuclear translocation of RelB was analyzed by western blot in iCD40 DCs exposed to log dilutions of AP20187 (FIG. 2D).
DC activation potency of iCD40 was compared with other traditional DC maturation stimuli, such as LPS, TNFα, anti-CD40 mAb, and CD40L. […]

[1] = test system: syngeneic lymph node (LN)-derived cells; assay: Mixed lymphocyte reaction, 3H-thymidine T cell proliferation with mitomycin C-treated D2SC/1 DCs; format: cell-based; details: purified CD8+ T cells from LN tissue (>95%), no CD4+ help
Experimental: The initial approach to the determination of the T cell stimulation capacity of iCD40 DCs involved the co-incubation of mitomycin C-treated D2SC/1 DCs with syngeneic lymph node (LN)-derived cells in vitro. This mixed lymphocyte reaction (MLR) assay measured the ability of iCD40 DCs to induce a syngeneic T cell proliferative response to bovine serum-derived xenogeneic antigens (FIG. 3C). […] In order to investigate whether this T cell activation effect was dependent on CD4+ T cell help, CD8+ T cells from LN tissue (>95%) were purified and the ^3H-thymidine-based proliferation assay was repeated (FIG. 3C). […] Furthermore, the CD4+-depletion data inferred that the iCD40 receptor may be capable of substituting for CD4+ T cell help in DC-based vaccination strategies.

IL-12 = assay: Intracellular cytokine staining of IL-12 in BMDCs; format: cell-based, C57BL/6 mice; details: decreased thereafter
Source text: A viral region E1 and E3-deleted, replication-deficient type 5 adenoviral vector was engineered to express both iCD40 and EGFP under the control of the CMV early/immediate promoter/enhancer. Ad-iCD40-GFP successfully transduced and expressed the iCD40 transgene, as well as the EGFP marker, in purified BMDCs (FIG. 5A,B). […] The effects of Ad-iCD40-GFP on BMDCs were studied by using intracellular cytokine staining to evaluate DC expression of the TH1-polarizing cytokine, IL-12. The results confirmed numerous previous reports that an empty adenoviral vector can contribute to background fluorescence readings by stimulating the production of low levels of this cytokine (FIG. 5D) (Korst 2002).

iCD40-IICD40 DC lines = assay: iCD40-IICD40 double-stable D2SC/1 DC lines, western blot and H-2K^d surface expression; format: cell-based; details: IICD40-expressing lines vs empty vector control
Source text: FIG. 9A-FIG. 9D show iCD40 circumvents negative feedback inhibition by the Type II CD40 (IICD40) isoform. FIG. 9A is a schematic of Type I, II, and iCD40. […] The type II CD40 isoform was rt-PCR amplified from purified BMDCs, subcloned into a pEF-1α-driven myc-tagged ZeoR vector, and transfected into iCD40-expressing D2SC/1 cells. Double clonal stable lines were generated by G418/zeocin selection and limiting dilution. Resulting lines were screened for IICD40 expression by anti-myc western blot and analyzed for iCD40 expression by anti-HA western blots. FIG. 9C is a graph showing that Type II CD40 down-regulates surface expression of Type I CD40 in DC Lines. Empty vector control and IICD40-expressing D2SC/1 lines were analyzed for their surface expression of CD40 by flow cytometry. Only viable cells were gated for analysis. FIG. 9D provides two graphs showing the Type II CD40 isoform downmodulates Type I CD40 signaling, but not iCD40 signaling. iCD40-IICD40-expressing D2SC/1 cell lines were cultured in the presence of increasing concentrations of CD40L and the AP20187 drug followed by surface staining and flow analysis of H-2K^d. […]
To expand upon these findings, the effects of CD40L and AP20187 titrations on each of the IICD40 lines were analyzed based on the hypothesis that IICD40-mediated type I CD40 downregulation should blunt the DC response to CD40L but not to AP20187 (FIG. 9D).

C=C1[C@@H](C)[C@H]2[C@H](Cc3ccccc3)NC(=O)[C@]23OC(=O)/C=C/[C@H](O)CCC[C@@H](C)C/C=C/[C@H]3[C@@H]1O [cytocholasin B]
sensitivity of CD40L-induced CD40 downregulation to inhibitor (CD40; endocytosis inhibitor): sensitive

TNFα
duration of RelB induction (RelB): 24 h

balifomycin A1
total CD40 levels (intracellular staining) (CD40; endosomal H^+ATPase inhibitor): enhanced total CD40 levels

lipopolysaccharide [LPS]
CD8+ T cell proliferation [1]: failed to circumvent the requirement for CD4+ T cell-derived helper signals
time of peak IL-12p70/p40 synthesis (IL-12): 8 h

B1: CD40L: CD40 ligand (protein)
chain: MIETYNQTSPRSAATGLPISMKIFMYLLTVFLITQMIGSALFAVYLHRRLDKIEDERNLHEDFVFMKTIQRCNTGERSLSLLNCEEIKSQFEGFVKDIMLNKEETKKENSFEMQKGDQNPQIAAHVISEASSKTTSVLQWAEKGYYTMSNNLVTLENGKQLTVKRQGLYYIYAQVTFCSNREASSQAPFIASLCLKSPGRFERILLRAANTHSSAKPCGQQSIHLGGVFELQPGASVFVNVTDPSQVSHGTGFTSFGLLKL
time of peak IL-12p70/p40 synthesis (IL-12): 8 h
surface CD40 mean fluorescence intensity (CD40; D2SC/1 DC line, rapid kinetics): promptly reduced the mean fluorescence intensity of CD40
MHC class I H-2K^d surface expression dose-response (iCD40-IICD40 DC lines): elevated amounts of CD40L were required to initiate signaling through the CD40 axis
